Test results taken from PubChem BioAssay AID1963834 (Molecular Pharmacology Branch, DTP, NCI, 2024).

System: 873145-292-R-J1-PDC complex spheroid viability
Experiment: Anticancer human tumor 873145-292-R-J1-PDC patient-derived renal clear cell carcinoma cell line growth inhibition [POLQ]
Settings: for IC50: curve of first compound; for viability, T/C: stronger effect = lower value; active = viability on the fitted dose curve at most 10% of control; inactive = the rest
Summary of the method: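 Growth inhibition in 3D: complex spheroids (tumor PDC, HUVEC, MSC) treated with POLQ inhibitor combinations; where Cmax unknown, highest tested concentration 10 microM, except SN-38 at 1 microM.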

[1] = second compound 0.0316 µM, first compound 0.0316 µM
[2] = second compound 0.0316 µM, first compound 0.1 µM
[3] = second compound 0.0316 µM, first compound 0.316 µM
[4] = second compound 0.0316 µM, first compound 1 µM
[5] = second compound 0.1 µM, first compound 0.0316 µM
[6] = second compound 0.1 µM, first compound 0.1 µM
[7] = second compound 0.1 µM, first compound 0.316 µM
[8] = second compound 0.1 µM, first compound 1 µM
[9] = second compound 0.316 µM, first compound 0.0316 µM
[10] = second compound 0.316 µM, first compound 0.1 µM
[11] = second compound 0.316 µM, first compound 0.316 µM
[12] = second compound 0.316 µM, first compound 1 µM
[13] = second compound 1 µM, first compound 0.0316 µM
[14] = second compound 1 µM, first compound 0.1 µM
[15] = second compound 1 µM, first compound 0.316 µM
[16] = second compound 1 µM, first compound 1 µM
[17] = second compound 3.16 µM, first compound 0.0316 µM
[18] = second compound 3.16 µM, first compound 0.1 µM
[19] = second compound 3.16 µM, first compound 0.316 µM
[20] = second compound 3.16 µM, first compound 1 µM
[21] = second compound 10 µM, first compound 0.0316 µM
[22] = second compound 10 µM, first compound 0.1 µM
[23] = second compound 10 µM, first compound 0.316 µM
[24] = second compound 10 µM, first compound 1 µM
[25] = second compound 0.0316 µM, first compound 3.16 µM
[26] = second compound 0.0316 µM, first compound 10 µM
[27] = second compound 0.1 µM, first compound 3.16 µM
[28] = second compound 0.1 µM, first compound 10 µM
[29] = second compound 0.316 µM, first compound 3.16 µM
[30] = second compound 0.316 µM, first compound 10 µM
[31] = second compound 1 µM, first compound 3.16 µM
[32] = second compound 1 µM, first compound 10 µM
[33] = second compound 3.16 µM, first compound 3.16 µM
[34] = second compound 3.16 µM, first compound 10 µM
[35] = second compound 10 µM, first compound 3.16 µM
[36] = second compound 10 µM, first compound 10 µM
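Also: spheroids exposed to compounds for 7 days before viability readout.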
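For viability, T/C in this document: luminescence signal used as surrogate for viable cell content; 100% = DMSO vehicle control viability.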

CCc1c2c(nc3ccc(O)cc13)-c1cc3c(c(=O)n1C2)COC(=O)[C@]3(O)CC + COC1C(OC(N)=O)C(O)C(Oc2ccc3c(O)c(NC(=O)c4ccc(O)c(CC=C(C)C)c4)c(=O)oc3c2C)OC1(C)C
63.7 nM: IC50 (second compound 0.1 µM)
67.8 nM: IC50 (second compound 0.316 µM)
50.4 nM: IC50 (second compound 1 µM)
78.8 nM: IC50 (second compound 0.0316 µM)
inactive: viability, T/C (second compound 0.0316 µM, first compound 0.00316 µM) 108% | viability, T/C (second compound 0.0316 µM, first compound 0.01 µM) 86.7% | viability, T/C [1] 58.6% | viability, T/C [2] 47.1% | viability, T/C [3] 40.6% | viability, T/C [4] 28.6% | viability, T/C (second compound 0.1 µM, first compound 0.00316 µM) 96.4% | viability, T/C (second compound 0.1 µM, first compound 0.01 µM) 92.1% | viability, T/C [5] 53.7% | viability, T/C [6] 48.4% | viability, T/C [7] 36.7% | viability, T/C [8] 26.9% | viability, T/C (second compound 0.316 µM, first compound 0.00316 µM) 103% | viability, T/C (second compound 0.316 µM, first compound 0.01 µM) 83% | viability, T/C [9] 59.2% | viability, T/C [10] 43.2% | viability, T/C [11] 39.7% | viability, T/C [12] 28.6% | viability, T/C (second compound 1 µM, first compound 0.00316 µM) 104% | viability, T/C (second compound 1 µM, first compound 0.01 µM) 87.2% | viability, T/C [13] 58.1% | viability, T/C [14] 36.6% | viability, T/C [15] 39.4% | viability, T/C [16] 28.7% | viability, T/C (second compound 3.16 µM, first compound 0.00316 µM) 99.8% | viability, T/C (second compound 3.16 µM, first compound 0.01 µM) 77.1% | viability, T/C [17] 57% | viability, T/C [18] 42.2% | viability, T/C [19] 37.6% | viability, T/C [20] 27.2% | viability, T/C (second compound 10 µM, first compound 0.00316 µM) 99.7% | viability, T/C (second compound 10 µM, first compound 0.01 µM) 75.4% | viability, T/C [21] 53.4% | viability, T/C [22] 55.4% | viability, T/C [23] 39.2% | viability, T/C [24] 26.2%
82.9 nM: IC50 (second compound 10 µM)
59.8 nM: IC50 (second compound 3.16 µM)

Nc1ccn(C2OC(CO)C(O)C2(F)F)c(=O)n1 (stereo not drawn) + COC1C(OC(N)=O)C(O)C(Oc2ccc3c(O)c(NC(=O)c4ccc(O)c(CC=C(C)C)c4)c(=O)oc3c2C)OC1(C)C
243 nM: IC50 (second compound 0.316 µM)
inactive: viability, T/C [1] 59.6% | viability, T/C [2] 46.6% | viability, T/C [3] 52.2% | viability, T/C [4] 46.5% | viability, T/C [25] 54.8% | viability, T/C [26] 50.9% | viability, T/C [5] 51.2% | viability, T/C [6] 57.5% | viability, T/C [7] 53.7% | viability, T/C [8] 44.2% | viability, T/C [27] 51% | viability, T/C [28] 43.5% | viability, T/C [9] 60.8% | viability, T/C [10] 52.9% | viability, T/C [11] 47.8% | viability, T/C [12] 48.3% | viability, T/C [29] 51.4% | viability, T/C [30] 46% | viability, T/C [13] 57.8% | viability, T/C [14] 54.8% | viability, T/C [15] 52.7% | viability, T/C [16] 48.8% | viability, T/C [31] 49.6% | viability, T/C [32] 48.4% | viability, T/C [17] 61.7% | viability, T/C [18] 60.2% | viability, T/C [19] 50.3% | viability, T/C [20] 43.6% | viability, T/C [33] 50.7% | viability, T/C [34] 52.5% | viability, T/C [21] 59.2% | viability, T/C [22] 52.4% | viability, T/C [23] 52.2% | viability, T/C [24] 45.6% | viability, T/C [35] 53.6% | viability, T/C [36] 53.1%
1090 nM: IC50 (second compound 0.1 µM)
> 10000 nM: IC50 (second compound 0.0316 µM) | IC50 (second compound 10 µM)
1280 nM: IC50 (second compound 1 µM)
360 nM: IC50 (second compound 3.16 µM)

O=C(c1cc(Cc2n[nH]c(=O)c3ccccc23)ccc1F)N1CCN(C(=O)C2CC2)CC1 + COC1C(OC(N)=O)C(O)C(Oc2ccc3c(O)c(NC(=O)c4ccc(O)c(CC=C(C)C)c4)c(=O)oc3c2C)OC1(C)C
inactive: viability, T/C [1] 112% | viability, T/C [2] 94.8% | viability, T/C [3] 106% | viability, T/C [4] 97.2% | viability, T/C [25] 109% | viability, T/C [26] 103% | viability, T/C [5] 117% | viability, T/C [6] 94.9% | viability, T/C [7] 90.8% | viability, T/C [8] 96.2% | viability, T/C [27] 92.6% | viability, T/C [28] 100% | viability, T/C [9] 106% | viability, T/C [10] 97.5% | viability, T/C [11] 93.2% | viability, T/C [12] 90.8% | viability, T/C [29] 103% | viability, T/C [30] 93.2% | viability, T/C [13] 94.5% | viability, T/C [14] 104% | viability, T/C [15] 100% | viability, T/C [16] 87.2% | viability, T/C [31] 101% | viability, T/C [32] 103% | viability, T/C [17] 108% | viability, T/C [18] 107% | viability, T/C [19] 106% | viability, T/C [20] 94.2% | viability, T/C [33] 99.5% | viability, T/C [34] 96.2% | viability, T/C [21] 88% | viability, T/C [22] 103% | viability, T/C [23] 96.3% | viability, T/C [24] 92.2% | viability, T/C [35] 107% | viability, T/C [36] 97.2%
> 10000 nM: IC50 (second compound 0.0316 µM) | IC50 (second compound 0.1 µM) | IC50 (second compound 0.316 µM) | IC50 (second compound 1 µM) | IC50 (second compound 3.16 µM) | IC50 (second compound 10 µM)

O=c1[nH]cc(F)c(=O)[nH]1 + COC1C(OC(N)=O)C(O)C(Oc2ccc3c(O)c(NC(=O)c4ccc(O)c(CC=C(C)C)c4)c(=O)oc3c2C)OC1(C)C
inactive: viability, T/C [1] 100% | viability, T/C [2] 92.8% | viability, T/C [3] 90.8% | viability, T/C [4] 110% | viability, T/C [25] 87.9% | viability, T/C [26] 96.8% | viability, T/C [5] 105% | viability, T/C [6] 103% | viability, T/C [7] 85.2% | viability, T/C [8] 95.4% | viability, T/C [27] 89.2% | viability, T/C [28] 89.1% | viability, T/C [9] 101% | viability, T/C [10] 90% | viability, T/C [11] 87.1% | viability, T/C [12] 87.4% | viability, T/C [29] 109% | viability, T/C [30] 91.3% | viability, T/C [13] 88.9% | viability, T/C [14] 89.8% | viability, T/C [15] 86.2% | viability, T/C [16] 87.7% | viability, T/C [31] 100% | viability, T/C [32] 88.5% | viability, T/C [17] 95% | viability, T/C [18] 95.5% | viability, T/C [19] 90.2% | viability, T/C [20] 92.3% | viability, T/C [33] 101% | viability, T/C [34] 91.3% | viability, T/C [21] 91.3% | viability, T/C [22] 91.3% | viability, T/C [23] 92.5% | viability, T/C [24] 96.3% | viability, T/C [35] 93.1% | viability, T/C [36] 89.9%
> 10000 nM: IC50 (second compound 0.0316 µM) | IC50 (second compound 0.1 µM) | IC50 (second compound 0.316 µM) | IC50 (second compound 1 µM) | IC50 (second compound 3.16 µM) | IC50 (second compound 10 µM)
